These results are taken from patent US20210154472A1, “ELECTRICALLY RESPONSIVE, NANOPATTERNED SURFACE FOR TRIGGERED INTRACELLULAR DELIVERY OF BIOLOGICALLY ACTIVE MOLECULES” (Yissum Research Development Company of the Hebrew …, priority 2019, published 2021).

Structures are written as SMILES.

In the assay the test system is NIH3T3 fibroblast cells. Nature of the assay: Dox internalization in cells incubated in Dox solution (FIG. 7). The settings on record: cells incubated 24 and 36 h in 17 μM Dox solution. The class given is cell-based, mice.

Method: FIGS. 7A-D provide (A,B) Overlaid optical microscopy and fluorescence images (λex=481 nm) showing extent of Dox internalization in NIH3T3 fibroblast cells after 24 and 36 h incubation in 17 μM Dox solution (for comparison, the Dox concentration that was released from 1-cm^2 nano-patterned PEM to 1-mL solution was ˜14 μM as shown in FIG. 4F). Cells were cultured for 2 days prior to incubation.

Turning to `COc1cccc2c1C(=O)c1c(O)c3c(c(O)c1C2=O)C[C@@](O)(C(=O)CO)C[C@@H]3O[C@H]1C[C@H](N)[C@H](O)[C@H](C)O1` [Dox, doxorubicin], the “time for the drug to penetrate the cell membrane, versus release from PEM” value is recorded as “much longer time was needed”.
